Assays:
Type in all cases: cell-based
AGS cells = assay: Cell viability assay (MTS) in AGS cells; conditions: 72 h, MTS, Figure 2C
Protocol: (§1) HepG2, Huh7, H1299, HT29, AGS and A549 cells were purchased from the Korean Cell Line Bank (Seoul, Korea) and HaCaT cells were obtained from Prof. Sohee Kwon (Yonsei University, Korea). Liver cancer cells (HepG2), human keratinocyte cells (HaCaT), and lung cancer cells (A549) were grown in DMEM high-glucose medium, liver cancer cells (Huh7) and non-small cell lung cancer cells (H1299) were grown in RPMI 1640, and gastric cancer cells (AGS) were grown in Coon’s modified F12 medium. All media were supplemented with 10% FBS, 100 Units/mL penicillin, and 100 μg/mL streptomycin. All cells were incubated at 37 °C, 5% CO2 and 95% humidity.
(§2) Cell viability assay was conducted using Cell Titer 96® AQueous One Solution Cell proliferation Assay kit (Promega, Madison, WI, USA). Five cancer cells and HaCaT cells were plated in 96-well microplates with growth medium for 24 h. When cell confluency reached ~30%, cells were treated with DMSO (vehicle) and test compounds. The medium and test compounds were replaced every 24 h. To measure cell viability, the cells were incubated with MTS solution for 1 h. The absorbance was measured by using Infinite M200 microplate reader (Tecan, Männedorf, Switzerland) at 490 nm.
(§3) Figure 2 Effect of 5r on cell viability in HepG2, Huh7, AGS, H1299, A549, HaCaT, NIH3T3, and HEK293T cells. (A–H) HepG2, Huh7, AGS, H1299, A549, HaCaT, NIH3T3, and HEK293T cells were cultured with 5r at the indicated concentrations for 72 h, and medium was replaced every 24 h with freshly added 5r. Cell viability was measured by MTS analysis (mean ± S.D., n = 5). * p < 0.05, ** p < 0.01, *** p < 0.001.

Huh7 cells [1] = assay: Cell viability assay (MTS) in Huh7 cells; conditions: Homo sapiens, Huh-7, mean, n = 5, 72 h for 5r (Figure 2)
Protocol: as §1, §2, §3

NIH3T3 cells = assay: Cell viability assay (MTS) in NIH3T3 cells; conditions: 72 h, Figure 2G
Protocol: as §2, §3

HEK293T cells = assay: Cell viability assay (MTS) in HEK293T cells; conditions: 72 h, Figure 2H
Protocol: as §2, §3

cleaved PARP = assay: Western blot analysis of cleaved PARP in HepG2 cells; conditions: 24 h, Figure 4E,G
Protocol: For Western blot analysis, HepG2 and Huh7 cells were lysed with RIPA buffer (50 mM Tris-HCl, PH 7.4, 1% Nonidet P-40, 0.25% sodium deoxycholate, 150 mM NaCl, 1 mM EDTA, 1 mM Na3VO4, and protease inhibitor). Lysed samples were centrifuged at 13,000 RPM for 20 min at 4 °C to remove the cell debris, and equal amounts (60 μg protein/lane) of supernatant protein were divided by 4–12% Tris Glycine Precast Gel (KOMA BIOTECH, Seoul, Korea). Then, PVDF membranes (Millipore, Billerica, MA, USA) were used to transfer the separated proteins. Membrane blocking was performed by Tris-buffered saline with 0.1% Tween 20 (TBST) containing 5% bovine serum albumin (BSA) at room temperature for 50 min. The membranes were incubated with primary antibodies overnight at 4 °C with the indicated primary antibodies: anti-cleaved PARP (BD Biosciences) and anti-β-actin (Santa Cruz Biotechnology, Dallas, TX, USA). […] After 1 h, membranes were detected by using ECL Plus Western blotting detection system (GE Healthcare, Piscataway, NJ, USA).
Figure 4 Effect of 5r on activity of caspase-3 and cleavage of PARP in HepG2 and Huh7 cells. […] (E,F) Cells were cultured with 5r at the indicated concentrations for 24 h, and expression level of PARP, cleaved-PARP and β-actin were measured by Western blot analysis. […]

HepG2 cells [2] = assay: Flow cytometry cell cycle analysis (propidium iodide) in HepG2 cells; conditions: 3 µM 5r for 24 h
Protocol: HepG2 cells were grown to approximately 40% confluence in a 6-well plate and then 5r was treated for 24 h. After 24 h, HepG2 cells were washed out twice with PBS and centrifuged at 1000 RPM for 2 min at room temperature. The cells were stained with propidium iodide for 15 min and then cell cycle phases were measured by using FACS (Beckman Coulter, Fullerton, CA, USA).
Figure 5 Effect of 5r on cell cycle in HepG2 cells. (A,B) HepG2 cells were treated with 3 µM 5r for 24 h and then cell cycle phases were measured by propidium iodide staining, followed by flow cytometry analysis.

HepG2 cells [3] = assay: Combination of 5r with gemcitabine, cell viability (MTS) in HepG2 cells; conditions: co-treatment with gemcitabine (0.3 μM), 72 h
Protocol: as §2
(§4) Figure 6 Combination effect of 5r and gemcitabine on cell viability in HepG2 and Huh7 cells. (A,B) HepG2 and Huh7 cells were cultured with the indicated concentrations of 5r and gemcitabine (0.3 μM) for 72 h, and medium was replaced every 24 h with freshly added 5r and gemcitabine. Cell viability was determined by MTS analysis (mean ± S.D., n = 5). ** p < 0.01, *** p < 0.001.

Huh7 cells [4] = assay: Combination of 5r with gemcitabine, cell viability (MTS) in Huh7 cells; conditions: co-treatment with gemcitabine (0.3 μM), 72 h
Protocol: as §2, §4

`N#Cc1c2c3cccn3c(-c3ccccc3O)nc2n2ccccc12` [Compound 5r, 5-(2-Hydroxyphenyl)pyrrolo[1′,2′:1,6]pyrimido[5,4-b]indolizine-12-carbonitrile] was tested, and the “Effect on cell viability in AGS cells” value (AGS cells) was “weak effect”, the IC50 (Huh7 cells [1]) was 0.1 µM and the “Effect on cell viability in non-cancerous NIH3T3 cells” value (NIH3T3 cells) was “weakly decreased cell viability”. For the same compound, the “Effect on cell viability in non-cancerous HEK293T cells” value (HEK293T cells) was “weakly decreased cell viability”, the “Expression level of cleaved PARP in HepG2 cells” value (cleaved PARP) was “increased the expression level of cleaved PARP in a dose-dependent manner” and the “Ratio in the G2/M phase” value (HepG2 cells [2]) was “did not affect”. For the same compound, the “Sub-G1 (apoptotic peak) phase ratio” value (HepG2 cells [2]; control 24.1%) was 56.9%, the G0/G1 phase ratio (HepG2 cells [2]; control 64.6%) was 29.3% and the “Combination effect with gemcitabine on cell viability in HepG2 cells” value (HepG2 cells [3]) was “additional effect rather than a synergistic effect”. For the same compound, the “Combination effect with gemcitabine on cell viability in Huh7 cells” value (Huh7 cells [4]) was “additional effect rather than a synergistic effect”.

Reference: article PMC9694334, “Synthesis and Biological Evaluation of a Fused Structure of Indolizine and Pyrrolo[1,2-c]pyrimidine: Identification of Its Potent Anticancer Activity against Liver Cancer Cells” (Pharmaceuticals, 2022)
